Measurements from patent US5554620A, “Substituted 6,11-ethano-6,11-dihydrobenzo[b] quinolizinium salts and compositions and methods of use thereof” (Sterling Winthrop Inc., priority 1994, dated 1996).

target: PCP receptor; experiment: [3H]TCP radioreceptor assay (binding to PCP recognition sites); set-up: species or system rat (male Sprague-Dawley, whole brain); conditions: [3H]TCP approx. 1 nM, rat brain membranes; mean of at least two determinations
Experimental: [^3 H]TCP Radioreceptor Assay
[^3 H]TCP binding to PCP recognition sites was performed as described by Vignon et al. Brain Research 1983, 280, 194-197. Male Sprague-Dawley rats were sacrificed by decapitation, and whole brains were homogenized in 10 volumes (wt/vol) of cold Tris-HCl buffer (50 mM, pH 7.7) using a Brinkmann Polytron (setting 6, 30 sec). The homogenate was centrifuged at 40,000×g for 10 min at 4° C. The supernatant was decanted, and the homogenization and centrifugation steps were repeated twice as described above. Following this, the pellet was resuspended in Tris-HCl (5 mM, pH 7.7) at a tissue concentration of 0.5-0.75 g/mL, and one mL aliquots were frozen at -70° C. until use. The binding characteristics for PCP recognition sites were not altered by the freezing of membrane suspensions.
On the day of the assay, membrane aliquots were thawed, resuspended in fresh 5 mM Tris-HCl buffer at a tissue concentration of 1 mg/mL, and stored on ice until use. Each assay tube contained 100 μl of [^3 H]TCP at a final concentration of approximately 1 nM, 100 μL of various concentrations of the compounds of interest, 500 μL of the tissue suspension and 300 μL of buffer to a final assay volume of 1 mL and a final protein concentration of 0.5 mg/tube. Non-specific binding was defined by addition of a final concentration of 100 μM PCP to blank tubes. All tubes were incubated at room temperature for 25 min before termination of the reaction by rapid filtration over Whatman GF/B glass fiber filters that had been presoaked in a solution of 0.5% polyethylenimine for at least 1 hr prior to use. Filters were washed with three 4 mL volumes of cold Tris buffer. Following addition of scintillation cocktail, the amount of bound radioactivity was determined by liquid scintillation spectrometry using a Beckman LS 5000TA liquid scintillation counter with an efficiency for tritium of approximately 55%. Inhibition constants (Ki values) were calculated using the EBDA/LIGAND program (McPherson, J. Pharmacol. Meth. 1985, 14, 213-228), purchased from ElsevierBiosoft, Inc. Results are reported as the Ki values (in nM) which are expressed as the mean of at least two separate determinations; or as a percent (%) inhibition of binding at 10 μM.

Going from `O=[N+]([O-])c1cccc2c1C1c3cccc[n+]3C2CC1(c1ccoc1)c1ccoc1.[O-][Cl+3]([O-])([O-])[O-]` (single isomer, unassigned) [Example 201(d), 6,11-ethano-12,12-di(3-furyl)-10-nitro-6,11-dihydrobenzo[b]quinolizinium perchlorate] to `O=[N+]([O-])c1cccc2c1C1CC(c3ccoc3)(c3ccoc3)C2c2cccc[n+]21.[O-][Cl+3]([O-])([O-])[O-]` (single isomer, unassigned) [Example 201(c), 6,11-ethano-12,12-di(3-furyl)-7-nitro-6,11-dihydrobenzo[b]quinolizinium perchlorate], the Ki rises from 0.0492 µM to 3.43 µM (70-fold). The first binds more tightly here.

First: Cn1ccc(C2(c3ccn(C)n3)CC3c4ccccc4C2c2cccc[n+]23)n1 (stereo not shown) [158(f), 6,11-ethano-12,12-di[3-(1-methylpyrazolyl)]-6,11-dihydrobenzo[b]quinolizinium chloride]
Second: [O-][Cl+3]([O-])([O-])[O-].c1ccc2c(c1)C1CC(c3cocn3)(c3cocn3)C2c2cccc[n+]21 (stereo not shown) [53(g), 6,11-ethano-12,12-di(4-oxazolyl)-6,11-dihydrobenzo[b]quinolizinium perchlorate]
The Ki of the first is 6.8-fold higher: 0.632 µM for the first, 0.093 µM for the second.

Compared with `COc1ncccc1C1(c2cccnc2OC)CC2c3ccccc3C1c1cccc[n+]12.[O-][Cl+3]([O-])([O-])[O-]` (stereo not shown) [160(d), 6,11-ethano-12,12-di-(2-methoxypyridin-3-yl)-6,11-dihydrobenzo[b]quinolizinium perchlorate], `c1cncc(C2(c3cccnc3)CC3c4ccccc4C2c2cccc[n+]23)c1` (stereo not shown) [42(E), 6,11-ethano-12,12-di(3-pyridyl)-6,11-dihydrobenzo[b]quinolizinium chloride] is 5-fold higher in Ki: 0.453 µM for the first, 2.27 µM for the second.

Compared with `CCCCC12CC(c3ccccc3)(c3ccccc3)C(c3ccccc31)c1cccc[n+]12.[O-][Cl+3]([O-])([O-])[O-]` (stereo not shown) [59(c), 6,11-ethano-12,12-diphenyl-6-butyl-6,11-dihydrobenzo[b]quinolizinium perchlorate], `[O-][Cl+3]([O-])([O-])[O-].c1ccc(C2(c3ccccc3)CC3c4ccccc4C2c2cccc[n+]23)cc1` (stereo not shown) [111(a), 6,11-Ethano-12,12-diphenyl-6,11-dihydrobenzo[b]quinolizinium perchlorate] is 640-fold lower in Ki: 3.91 µM for the first, 0.00607 µM for the second. The second binds more tightly here.

First: Fc1cc(F)c2c(c1)C1CC(c3ccccc3)(c3ccccc3)C2c2cccc[n+]21 (stereo not shown) [33(c), 6,11-ethanol-12,12-diphenyl-8,10-difluoro-6,11-dihydrobenzo[b]quinolizinium chloride 1/4 hydrate]
Second: Clc1cccc(C2(c3cccc(Cl)c3)CC3c4ccccc4C2c2cccc[n+]23)c1 (stereo not shown) [55(b), 6,11-ethano-12,12-di(m-chlorophenyl)-6,11-dihydrobenzo[b]quinolizinium chloride]
The Ki of the first is 11-fold higher: 1.14 µM for the first, 0.104 µM for the second.

Compared with `CC(C)(C)C(=O)Oc1cccc2c1C1c3cccc[n+]3C2CC1(c1ccoc1)c1ccoc1` (stereo not shown) [Example 174, 6,11-ethano-12,12-di(3-furyl)-10-trimethylacetyloxy-6,11dihydrobenzo-[b]quinolizinium chloride], `COc1c(Cl)ccc2c1C1c3cccc[n+]3C2CC1(c1ccoc1)c1ccoc1` (stereo not shown) [187(g), 6,11-ethano-12,12-di(3-furyl)-9-chloro-10-methoxy-6,11-dihydrobenzo[b]quinolizinium chloride] is 2.7-fold higher in Ki: 0.0237 µM for the first, 0.0637 µM for the second. The first binds more tightly here.

Going from `CCOC1(c2cc(C)oc2C)CC2c3ccccc3C1c1cccc[n+]12` (stereo not shown) [12(b), 6,11-ethano-12-(2,5-dimethyl)-3-furyl]-12-ethoxy-6,11-dihydrobenzo[b]quinolizinium hexafluorophosphate] to `CCOC1(c2ccoc2)CC2c3ccccc3C1c1cccc[n+]12` (stereo not shown) [11(d), 6,11-ethano-12-(3-furyl)-12-ethoxy-6,11-dihydrobenzo[b]quinolizinium hexafluorophosphate], the Ki falls from 0.253 µM to 0.026 µM (9.7-fold). The second binds more tightly here.

Going from `CCOC1(c2ccoc2)CC2(C)c3ccccc3C1c1cccc[n+]12.[O-][Cl+3]([O-])([O-])[O-]` (stereo not shown) [Example 13(a), 6,11-ethano-12-(3-furyl)-12-ethoxy-6-methyl-6,11-dihydrobenzo[b]quinolizinium perchlorate] to `CCCCCCCCOc1cccc2c1C1c3cccc[n+]3C2CC1(c1ccoc1)c1ccoc1.[O-][Cl+3]([O-])([O-])[O-]` (stereo not shown) [Example 172, 6,11-ethano-12,12-di(3-furyl)-10-octyloxy-6,11-dihydrobenzo[b]quinolizinium perchlorate], the Ki rises from 0.019 µM to 3.38 µM (180-fold). The first binds more tightly here.

First: c1ccc2c(c1)C1C3CCc4occc4C3(c3ccoc3)C2c2cccc[n+]21 (single isomer, unassigned) [69(c), 6,11[[5',4']-4'-(3-furyl)-4,5,6,7-tetrahydrobenzofuryl]-6,11-dihydrobenzo[b]quinolizinium perchlorate]
Second: c1ccc2c(c1)C1C3CCc4sccc4C3(c3ccoc3)C2c2cccc[n+]21 (stereo not shown) [15(c), 6,11[[5',4']-4'-(3-furyl)-4',5',6',7'-tetrahydrothianaphthyl]6,11]-dihydrobenzo[b]quinolizinium hexafluorophosphate]
The Ki of the first is 1.6-fold lower: 0.0009 µM for the first, 0.0014 µM for the second.

Compared with `CCCCCCCCOC(=O)CC(C)(C)C(=O)Oc1cccc2c1C1c3cccc[n+]3C2CC1(c1ccoc1)c1ccoc1` (stereo not shown) [194(d), 12,12-di(3-furyl)-10-(OC(O)C(CH3)2 CH2 C(O)OOctyl)-6,11-ethano-6,11-dihydrobenzo[b]quinolizinium chloride], `c1cc[n+]2c(c1)C1c3c(ccc4c3OCO4)C2CC1(c1ccoc1)c1ccoc1` (stereo not shown) [183(c), 6,11-ethano-12,12-di(3-furyl)-9,10-methylenedioxy-6,11-dihydrobenzo[b]quinolizinium chloride] is 26-fold lower in Ki: 0.0713 µM for the first, 0.00272 µM for the second.

`c1ccc2c(c1)C1CC(c3ccoc3)(c3ccoc3)C2c2c3ccccc3cc[n+]21` (stereo not shown) [180(g), 14,14-di(3-furyl)-8,13-ethano-8,13-dihydrodibenzo[a,g]quinolizinium chloride] and `COc1ccc[n+]2c1C1c3ccccc3C2CC1(c1ccoc1)c1ccoc1` (stereo not shown) [164(e), 6,11-ethano-12,12-di(3-furyl)-1-methoxy-6,11-dihydrobenzo[b]quinolizinium chloride] are within 1.5-fold of each other in Ki: 0.0199 µM for the first, 0.0189 µM for the second.

Going from `Brc1ccc(Br)c2c1C1CC(c3ccoc3)(c3ccoc3)C2c2cccc[n+]21.[O-][Cl+3]([O-])([O-])[O-]` (stereo not shown) [60(e), 6,11-ethano-12,12-di(3-furyl)-7,10-dibromo-6,11-dihydrobenzo[b]quinolizinium perchlorate] to `Cc1ccc(S(=O)(=O)n2nccc2C2(c3ccoc3)CC3c4ccccc4C2c2cccc[n+]23)cc1` (single isomer, unassigned) [Example 184(c), 6,11-ethano-12-(3-furyl)-12-[1-(p-toluenesulfonyl)pyrazol-5-yl]-6,11-dihydrobenzo[b]quinolizinium bromide], the Ki rises from 0.345 µM to 12.9 µM (37-fold).

Going from `C#CC1(c2ccccc2)CC2c3ccccc3C1c1cccc[n+]12` (single isomer, unassigned) [Example 56, 6,11-ethano-12-phenyl-12-ethynyl-6,11-dihydrobenzo[b]quinolizinium hexafluorophosphate] to `Brc1cccc(C2(c3cccc(Br)c3)CC3c4ccccc4C2c2cccc[n+]23)c1` (stereo not shown) [36(c), 6,11-ethano-12,12-di(m-bromophenyl)-6,11-dihydrobenzo[b]quinolizinium chloride], the Ki rises from 0.056 µM to 0.185 µM (3.3-fold). The first binds more tightly here.

Compared with `COc1cccc2c1C1c3cccc[n+]3C2CC1(c1cc[nH]n1)c1cc[nH]n1` (stereo not shown) [179(b), 6,11-ethano-12,12-di(pyrazolyl-3-yl]-10-methoxy-6,11-dihydrobenzo[b]quinolizinium chloride], `c1ccc2c(c1)C1CC(c3ncc[nH]3)(c3ncc[nH]3)C2c2cccc[n+]21` (stereo not shown) [173(e), 6,11-ethano-12,12-di(imidazol-2-yl)-6,11-dihydrobenzo[b]quinolizinium chloride] is 6.4-fold higher in Ki: 0.259 µM for the first, 1.67 µM for the second.

same assay, conditions: [3H]TCP approx. 1 nM, rat brain membranes; mean of at least two determinations; hydrate

`CC12CC(c3ccccc3)(c3ccccc3)C(c3ccccc31)c1cccc[n+]12` (stereo not shown) [Example 21, 6,11-ethano-12,12-diphenyl-6-methyl-6,11-dihydrobenzo[b]quinolizinium chloride hydrate] gave a Ki of 0.013 µM.

same assay, conditions: inhibition of [3H]TCP binding at 10 μM

First: Cc1ccc(C2(c3ccc(C)cc3)CC3c4ccccc4C2c2cccc[n+]23)cc1.[Cl-] (stereo not shown) [30(c), 6,11-ethano-12,12-di-(p-methylphenyl)-6,11-dihydrobenzo[b]quinolizinium chloride]
Second: COc1ccc(CN(c2ccc(C3(c4ccc(N(Cc5ccc(OC)cc5)S(C)(=O)=O)cc4)CC4c5ccccc5C3c3cccc[n+]34)cc2)S(C)(=O)=O)cc1 (stereo not shown) [29(c), 6,11-ethano-12,12-di[4-(N-p-methoxybenzyl-N-methylsulfonylamino)phenyl]-6,11-dihydrobenzo[b]quinolizinium perchlorate 1/2 ethyl acetate]
The “[3H]TCP percent inhibition @ 10 μm” value of the first is lower: 22% for the first, 31% for the second.
